According to patent US20230203081A1, “LINCOSAMIDE ANTIBIOTICS AND USES THEREOF” (President and Fellows of Harvard College, priority 2020, published 2023):
In brackets after ≈: the same amount, converted by molar mass. Read-outs that look alike come from different tables or passages of the source.

What was measured:
Assay type in all cases: cell-based
E. faecium Clinical VRE = assay: MIC (broth microdilution or agar dilution, CLSI); details: Enterococcus faecium; E. faecium Clinical VRE; read-out: MIC
Description: (§1) Minimum inhibitory concentrations (MICs) were determined by broth microdilution method or agar dilution method following the Clinical and Laboratory Standards Institute guidelines. Standard bacterial strains were obtained from American Type Culture Collection (ATCC). Other bacterial strains were obtained from hospitals and commercial sources, so noted in Table 11. Before the start of the MIC experiment, standard and test compound stock solutions were prepared in dimethyl sulfoxide (DMSO, Aldrich D2650) at a stock concentration of 5,120 μg/mL. The compound concentration range typically employed for each experiment was 128-0.06 μg/mL (2.5% final DMSO concentration). Clindamycin was used as a comparator in all experiments and each experiment was performed in triplicate. Specialized procedures were employed for streptococcal and anaerobic strains. All other bacterial strains were sub-cultured on blood agar plates (tryptic soy agar with 5% sheep blood, Hardy Diagnostics) and incubated overnight at 35° C. Organisms were suspended in cation-adjusted Mueller-Hinton broth (CaMHB, BD 212322) and optical density was adjusted to 0.5 McFarland standard. Suspensions were further diluted to obtain a final inoculum of 5×10^5 CFU/mL for broth microdilution experiments.

S. aureus cErmA = assay: MIC (broth microdilution or agar dilution, CLSI); details: Staphylococcus aureus; S. aureus cErmA; read-out: MIC
Description: as §1

P. aeruginosa ATCC 27853 = assay: MIC (broth microdilution or agar dilution, CLSI); details: Pseudomonas aeruginosa, ATCC27853; P. aeruginosa ATCC 27853; read-out: MIC
Description: as §1

S. pneumoniae ATCC 49619 = assay: MIC (broth microdilution or agar dilution, CLSI); details: Streptococcus pneumoniae, read-out: MIC
Description: (§2) Minimum inhibitory concentrations (MICs) were determined by broth microdilution method or agar dilution method following the Clinical and Laboratory Standards Institute guidelines. Standard bacterial strains were obtained from American Type Culture Collection (ATCC). Other bacterial strains were obtained from hospitals and commercial sources, so noted in Table 11. […] Specialized procedures were employed for streptococcal and anaerobic strains. All other bacterial strains were sub-cultured on blood agar plates (tryptic soy agar with 5% sheep blood, Hardy Diagnostics) and incubated overnight at 35° C. […] Suspensions were further diluted to obtain a final inoculum of 5×10^5 CFU/mL for broth microdilution experiments.

K. oxytoca Clinical = assay: MIC (broth microdilution or agar dilution, CLSI); details: Klebsiella oxytoca, read-out: MIC
Description: as §2

S. aureus ATCC 29213 = assay: MIC (broth microdilution or agar dilution, CLSI); details: Staphylococcus aureus, read-out: MIC
Description: as §2

E. faecalis ATCC 29212 = assay: MIC (broth microdilution or agar dilution, CLSI); details: Enterococcus faecalis, read-out: MIC
Description: as §2

A. baumannii ATCC 19606 = assay: MIC (broth microdilution or agar dilution, CLSI); details: Acinetobacter baumannii, ATCC19606; A. baumannii ATCC 19606; read-out: MIC
Description: as §2

S. pyogenes ATCC 19615 = assay: MIC (broth microdilution or agar dilution, CLSI); details: Streptococcus pyogenes, read-out: MIC
Description: as §2

E. coli LptD = assay: MIC (broth microdilution or agar dilution, CLSI); details: Escherichia coli, read-out: MIC
Description: as §2

E. coli ATCC 25922 = assay: MIC (broth microdilution or agar dilution, CLSI); details: Escherichia coli, ATCC25922, read-out: MIC
Description: as §2

E. coli ΔTolC = assay: microbe, parasite or virus in culture; details: Escherichia coli
Description: as §2

[1] = tested on: S. pneumoniae MMX 3028 cErmB; assay: MIC (broth microdilution or agar dilution, CLSI); details: Streptococcus pneumoniae, MMX3028CERMB; S. pneumoniae HAV#033; MMX 3028, cErmB; read-out: MIC
Description: as §2

[2] = tested on: S. pneumoniae MMX 3031 cMefA; assay: MIC (broth microdilution or agar dilution, CLSI); details: Streptococcus pneumoniae, MMX3031CMEFA, S. pneumoniae HAV#034; MMX 3031, cMefA; read-out: MIC
Description: as §2

S. pneumoniae ATCC 6303 = assay: MIC (broth microdilution or agar dilution, CLSI); details: Streptococcus pneumoniae, ATCC6303; S. pneumoniae HAV#351, ATCC 6303; read-out: MIC
Description: as §2

S. aureus hVISA = assay: MIC (broth microdilution or agar dilution, CLSI); details: Staphylococcus aureus; S. aureus HAV#204, hVISA; read-out: MIC
Description: as §2

S. aureus MMX 3035 cErmA = assay: MIC (broth microdilution or agar dilution, CLSI); details: Staphylococcus aureus, MMX3035CERMA; S. aureus HAV#031, MMX 3035; cErmA; read-out: MIC
Description: as §2

[3] = tested on: S. pyogenes MMX 946; cErmB; assay: MIC (broth microdilution or agar dilution, CLSI); details: Streptococcus pyogenes; S. pyogenes HAV#035, MMX 946; cErmB, mac-resistant; read-out: MIC
Description: as §2

[4] = tested on: E. faecalis MMX 847; cErmB; assay: MIC (broth microdilution or agar dilution, CLSI); details: Enterococcus faecalis; E. faecalis HAV#036, MMX 847; mac-resistant, cErmB; read-out: MIC
Description: as §2

[5] = tested on: S. aureus ATCC BAA-1707 (MRSA); assay: MIC (broth microdilution or agar dilution, CLSI); details: Staphylococcus aureus; S. aureus HAV#016, ATCC BAA-1707; MRSA; read-out: MIC
Description: as §2

S. aureus BAA 977 iErmA = assay: microbe, parasite or virus in culture; details: Staphylococcus aureus, BAA-977 / MRSA
Description: as §2

S. aureus MP-549 msrA = assay: microbe, parasite or virus in culture; details: Staphylococcus aureus, MP549MSRA; S. aureus HAV#032, MP-549; MSR(A)
Description: as §2

[6] = tested on: broad panel of different clinical isolates; assay: microbe, parasite or virus in culture
Description: as §2

[7] = ATCC49619, S. pneumoniae ATCC 49619
[8] = ATCC29213, S. aureus ATCC 29213
[9] = ATCC29212, E. faecalis ATCC 29212
[10] = ATCC19615, S. pyogenes ATCC 19615

## CSC1O[C@H]([C@H](NC(=O)[C@H]2NC[C@@H]3C[C@H](C)CCO[C@H]32)[C@H](C)Cl)C(O)[C@@H](O)[C@H]1O (stereo partly drawn) [FSA-10-10-014]
E. faecium Clinical VRE
  MIC: 64 µg/mL (≈ 141 µM)
S. aureus cErmA
  MIC: 64 µg/mL (≈ 141 µM)
P. aeruginosa ATCC 27853
  MIC: > 128 µg/mL
S. pneumoniae ATCC 49619; [7]
  MIC: 2 µg/mL (≈ 4.42 µM)
K. oxytoca Clinical; K. oxytoca Clinical
  MIC: 128 µg/mL (≈ 283 µM)
S. aureus ATCC 29213; [8]
  MIC: 1 µg/mL (≈ 2.21 µM)
E. faecalis ATCC 29212; [9]
  MIC: 16 µg/mL (≈ 35.3 µM)
A. baumannii ATCC 19606
  MIC: > 128 µg/mL
S. pyogenes ATCC 19615; [10]
  MIC: 1 µg/mL (≈ 2.21 µM)
E. coli LptD; E. coli LptD
  MIC: 8 µg/mL (≈ 17.7 µM)
E. coli ATCC 25922; E. coli ATCC 25922
  MIC: 64 µg/mL (≈ 141 µM)
E. coli ΔTolC; E. coli ΔTolC
  MIC: 8 µg/mL (≈ 17.7 µM)

## C=C[C@@H]1CCO[C@@H]2[C@H](CN[C@@H]2C(=O)N[C@H]([C@H](C)Cl)[C@H]2OC(SC)[C@H](O)[C@H](O)C2O)C1 (stereo partly drawn) [FSA-10-10-013]
E. faecium Clinical VRE
  MIC: 32 µg/mL (≈ 68.8 µM)
S. aureus cErmA
  MIC: 64 µg/mL (≈ 138 µM)
P. aeruginosa ATCC 27853
  MIC: > 128 µg/mL
S. pneumoniae ATCC 49619; [7]
  MIC: 0.25 µg/mL (≈ 0.538 µM)
K. oxytoca Clinical; K. oxytoca Clinical
  MIC: 128 µg/mL (≈ 275 µM)
S. aureus ATCC 29213; [8]
  MIC: 0.25 µg/mL (≈ 0.538 µM)
E. faecalis ATCC 29212; [9]
  MIC: 2 µg/mL (≈ 4.3 µM)
A. baumannii ATCC 19606
  MIC: > 128 µg/mL
S. pyogenes ATCC 19615; [10]
  MIC: 0.25 µg/mL (≈ 0.538 µM)
E. coli LptD; E. coli LptD
  MIC: 4 µg/mL (≈ 8.6 µM)
E. coli ATCC 25922; E. coli ATCC 25922
  MIC: 64 µg/mL (≈ 138 µM)
E. coli ΔTolC; E. coli ΔTolC
  MIC: 2 µg/mL (≈ 4.3 µM)

## Cc1onc(-c2ccccc2)c1C(=O)N[C@@H]1C(=O)N2[C@@H]1SC(C)(C)[C@@H]2C(=O)O [Oxacillin]
S. pneumoniae ATCC 49619; ATCC49619, S. pneumoniae HAV#003, ATCC 49619
  MIC: 2 µg/mL (≈ 4.98 µM)
[1]
  MIC: 2 µg/mL (≈ 4.98 µM)
[2]
  MIC: 16 µg/mL (≈ 39.9 µM)
S. pneumoniae ATCC 6303
  MIC: 0.5 µg/mL (≈ 1.25 µM)
K. oxytoca Clinical; K. oxytoca HAV#450, Clinical
  MIC: > 64 µg/mL
S. aureus hVISA
  MIC: 64 µg/mL (≈ 159 µM)
S. aureus MMX 3035 cErmA
  MIC: > 64 µg/mL
S. aureus ATCC 29213; ATCC29213, S. aureus HAV#001, ATCC 29213, MP-549
  MIC: 0.5 µg/mL (≈ 1.25 µM)
[3]
  MIC: 0.25 µg/mL (≈ 0.623 µM)
E. faecalis ATCC 29212; ATCC29212, E. faecalis HAV#005, ATCC 29212
  MIC: 32 µg/mL (≈ 79.7 µM)
[4]
  MIC: 64 µg/mL (≈ 159 µM)
S. pyogenes ATCC 19615; ATCC19615, S. pyogenes HAV#004, ATCC 19615
  MIC: 0.125 µg/mL (≈ 0.311 µM)
[5]
  MIC: > 64 µg/mL
E. coli LptD; E. coli HAV#040, LptD
  MIC: 4 µg/mL (≈ 9.96 µM)
E. coli ATCC 25922; E. coli HAV#006, ATCC 25922
  MIC: > 64 µg/mL
S. aureus BAA 977 iErmA
  MIC: 0.5 µg/mL (≈ 1.25 µM)
S. aureus MP-549 msrA
  MIC: 64 µg/mL (≈ 159 µM)
[6]; Enterococcus faecalis, VRE, E. faecalis HAV#251, Clinical VRE
  MIC: > 64 µg/mL
[6]; Staphylococcus aureus, MRSA, S. aureus HAV#0107, MRSA Col(Colindale, England)
  MIC: > 64 µg/mL
[6]; Staphylococcus aureus, VISA, S. aureus HAV#203, Clinical (VISA)
  MIC: 64 µg/mL (≈ 159 µM)
E. coli ΔTolC; E. coli HAV#038, ΔTolC
  MIC: 16 µg/mL (≈ 39.9 µM)

## CSC1O[C@H]([C@H](NC(=O)[C@H]2NC[C@@H]3C[C@H](CCF)CCO[C@H]32)[C@H](C)Cl)C(O)[C@@H](O)[C@H]1O (stereo partly drawn) [FSA-10-09-099]
E. faecium Clinical VRE
  MIC: 16 µg/mL (≈ 33 µM)
S. aureus cErmA
  MIC: 32 µg/mL (≈ 66 µM)
P. aeruginosa ATCC 27853
  MIC: > 128 µg/mL
S. pneumoniae ATCC 49619; [7]
  MIC: 0.25 µg/mL (≈ 0.515 µM)
K. oxytoca Clinical; K. oxytoca Clinical
  MIC: 32 µg/mL (≈ 66 µM)
S. aureus ATCC 29213; [8]
  MIC: 0.25 µg/mL (≈ 0.515 µM)
E. faecalis ATCC 29212; [9]
  MIC: 0.5 µg/mL (≈ 1.03 µM)
A. baumannii ATCC 19606
  MIC: > 128 µg/mL
S. pyogenes ATCC 19615; [10]
  MIC: 0.5 µg/mL (≈ 1.03 µM)
E. coli LptD; E. coli LptD
  MIC: 4 µg/mL (≈ 8.25 µM)
E. coli ATCC 25922; E. coli ATCC 25922
  MIC: 32 µg/mL (≈ 66 µM)
E. coli ΔTolC; E. coli ΔTolC
  MIC: 1 µg/mL (≈ 2.06 µM)
